Laboratory results taken from ChEMBL document CHEMBL1126118, “Synthesis and biological activity of ketomethylene pseudopeptide analogues as thrombin inhibitors” (J Med Chem, 1992).

Columns and labels:
Homo sapiens [1] = species on record: Homo sapiens; test: Concentration required to double the human alpha-thrombin induced clotting time of human plasma; assay type: functional
Prothrombin = Prothrombin (Homo sapiens, UniProt P00734); test: In vitro inhibitory activity against thrombin
Homo sapiens [2] = species on record: Homo sapiens; test: Concentration required to double the activated partial thromboplastin time of human plasma was measured; assay type: functional
Plasminogen = Plasminogen (Rattus norvegicus, UniProt Q01177); test: In vitro inhibitory activity against plasmin
Coagulation factor X = Coagulation factor X (Homo sapiens, UniProt P00742); test: In vitro inhibitory activity against Coagulation factor X
[3] = biological target: Urokinase-type plasminogen activator (Homo sapiens, UniProt P00749); test: In vitro inhibitory activity against Urokinase-type plasminogen activator
Kallikrein-1 = Kallikrein-1 (Homo sapiens, UniProt P06870); test: In vitro inhibitory activity against Kallikrein
Kallikrein-1, sequence (P06870 whole entry): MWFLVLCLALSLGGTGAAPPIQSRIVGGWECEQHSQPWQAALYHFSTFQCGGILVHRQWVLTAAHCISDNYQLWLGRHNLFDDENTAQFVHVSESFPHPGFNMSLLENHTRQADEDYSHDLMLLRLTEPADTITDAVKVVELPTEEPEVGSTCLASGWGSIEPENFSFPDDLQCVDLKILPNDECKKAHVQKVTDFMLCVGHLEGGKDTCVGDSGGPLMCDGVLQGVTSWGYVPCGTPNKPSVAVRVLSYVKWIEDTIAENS

Coagulation factor X, sequence (P00742 41-179 limits assumed): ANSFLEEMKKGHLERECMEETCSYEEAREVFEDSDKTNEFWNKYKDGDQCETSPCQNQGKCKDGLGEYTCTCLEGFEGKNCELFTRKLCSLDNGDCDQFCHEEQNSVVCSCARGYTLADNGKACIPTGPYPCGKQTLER
Coagulation factor X, sequence (P00742 235-488 limits assumed): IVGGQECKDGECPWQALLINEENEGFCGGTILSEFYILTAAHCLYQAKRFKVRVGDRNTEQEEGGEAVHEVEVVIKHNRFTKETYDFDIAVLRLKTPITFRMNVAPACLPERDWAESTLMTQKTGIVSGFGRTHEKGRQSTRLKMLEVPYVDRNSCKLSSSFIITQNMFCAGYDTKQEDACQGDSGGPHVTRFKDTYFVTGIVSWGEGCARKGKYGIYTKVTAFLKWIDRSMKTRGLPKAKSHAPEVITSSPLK
Plasminogen, sequence (Q01177 97-581 limits assumed): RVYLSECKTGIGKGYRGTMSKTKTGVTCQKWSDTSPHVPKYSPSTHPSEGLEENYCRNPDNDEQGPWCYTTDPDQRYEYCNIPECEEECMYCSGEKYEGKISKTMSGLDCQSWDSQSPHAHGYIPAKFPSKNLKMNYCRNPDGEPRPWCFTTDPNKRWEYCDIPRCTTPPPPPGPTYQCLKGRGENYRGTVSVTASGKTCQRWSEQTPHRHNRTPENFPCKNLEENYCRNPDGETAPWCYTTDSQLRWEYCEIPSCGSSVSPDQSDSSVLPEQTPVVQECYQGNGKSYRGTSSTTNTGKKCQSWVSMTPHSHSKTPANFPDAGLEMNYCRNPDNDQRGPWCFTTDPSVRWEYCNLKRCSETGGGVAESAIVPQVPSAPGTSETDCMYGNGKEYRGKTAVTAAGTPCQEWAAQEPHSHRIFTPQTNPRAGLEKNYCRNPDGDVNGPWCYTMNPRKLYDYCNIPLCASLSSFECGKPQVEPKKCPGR
Plasminogen, sequence (Q01177 582-812 limits assumed): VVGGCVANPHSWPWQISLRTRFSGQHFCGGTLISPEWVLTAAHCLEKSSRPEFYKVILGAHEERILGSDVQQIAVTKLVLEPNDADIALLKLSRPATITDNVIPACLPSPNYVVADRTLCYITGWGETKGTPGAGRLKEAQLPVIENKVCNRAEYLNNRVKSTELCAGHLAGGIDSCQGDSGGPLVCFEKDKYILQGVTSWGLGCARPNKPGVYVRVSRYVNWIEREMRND

Row | Compound | TT (Homo sapiens [1]) [µM] | Ki (Prothrombin) [µM] | APTT (Homo sapiens [2]) [µM] | Ki (Plasminogen) [µM] | Ki (Coagulation factor X) [µM] | Ki [3] [µM] | Ki (Kallikrein-1) [µM]
1 | NC(N)=NCCCC(NC(=O)[C@@H]1CCCN1C(=O)[C@H](N)Cc1ccccc1)C(=O)CCC(=O)N1CCCCC1 (stereo partly specified) | 4.9 |  |  |  |  |  | 
2 | NC(N)=NCCCC(NC(=O)[C@@H]1CCCN1C(=O)C(N)Cc1ccc2ccccc2c1)C(=O)CCC(=O)N1CCCCC1.O=C(O)C(F)(F)F.O=C(O)C(F)(F)F (stereo partly specified) | 90 | 11.6 |  |  |  |  | 
3 | NC(N)=NCCCC(NC(=O)[C@@H]1CCCN1C(=O)C(N)C(c1ccccc1)c1ccccc1)C(=O)CCC(=O)N1CCCCC1.O=C(O)C(F)(F)F.O=C(O)C(F)(F)F (stereo partly specified) |  | 0.6 | 45 |  |  |  | 
4 | NC(N)=NCCCC(NC(=O)[C@@H]1CCCN1C(=O)[C@H](N)C(c1ccccc1)c1ccccc1)C(=O)CCC(=O)N1CCCCC1.O=C(O)C(F)(F)F.O=C(O)C(F)(F)F (stereo partly specified) | 0.65 | 0.2 | 8 | 157 | 149 | 494 | 199
5 | NC(N)=NCCCC(NC(=O)[C@@H]1CCCN1C(=O)[C@@H](N)C(c1ccccc1)c1ccccc1)C(=O)CCC(=O)N1CCCCC1.O=C(O)C(F)(F)F.O=C(O)C(F)(F)F (stereo partly specified) | 7.5 | 1.7 | 100 |  |  |  | 
6 | NC(N)=NCCCC(NC(=O)[C@@H]1CCCN1C(=O)[C@H](N)Cc1ccc2ccccc2c1)C(=O)CCC(=O)N1CCCCC1 (stereo partly specified) |  | 2.28 |  |  |  |  | 
